# Reference: patent publication US11186579B2 (Gilead Sciences, Inc., priority 2018, dated 2021)
# Molecular target: T1, IDO1 (Homo sapiens, UniProt P14902)
# T1 construct: HeLa cells were treated with a test compound in the presence of IFNγ, which induces IDO1 expression; endogenous in cells; host or cells: H1-HeLa cells (ATCC #CRL-1958), IDO1 induced with IFNγ
# Assay: Cell-Based (HeLa) Assay for Measurement of IDO1 Inhibition
# Settings: H1-HeLa cells, IDO1 induced with IFNγ, 48 hour incubation, kynurenine in supernatant (absorbance 480 nm); geometric mean of minimum four determinations
# Experimental: To measure IDO1 inhibition in tissue culture, HeLa cells were treated with a test compound in the presence of IFNγ, which induces IDO1 expression. Following incubation, cell supernatants were assayed for kynurenine levels, an indicator of IDO1 activity.
# The following day, the test compounds were added in DMSO (0.5% final) at various concentrations, and IDO1 was inducibly expressed by the addition of 50 uL/well of 50 ng/mL of INFγ (Peprotech #300-02) in cell plating media. As a positive control, 50 uL of the cell plating media without IFNγ was added to several wells. Following a 48 hour incubation, the plates were spun down at 1,200 RPM for 5 min at 10° C. 65 μL/well of the supernatant was then transferred to new 384-well plates (Thermo #262160) that contained 10 uL/well of 30% TCA (Sigma #TO699), and the plates were sealed and incubated at 60° C. for 30 min. The plates were then centrifuged for 15 min at 2,000 RPM at 10° C. 40 μL/well of the supernatant was transferred to new 384-well plates (Thermo #262160) and was reacted with 40 μL/well of 2% (w/v) p-dimethlyaminobenzaldehyde (Sigma #156417) in glacial acetic acid (Sigma #A6283). The reaction was incubated at room temperature for 10 min and absorbance at 480 nm was read using a PerkinElmer Envision plate reader.
# Data in Table 1 were normalized based on positive (-IFNγ) and negative (+IFNγ) controls and EC50 values were calculated from the fit of the dose-response curves to a four-parameter equation. All EC50 values represent geometric mean values of a minimum of four determinations.
# T1 sequence (P14902 whole entry): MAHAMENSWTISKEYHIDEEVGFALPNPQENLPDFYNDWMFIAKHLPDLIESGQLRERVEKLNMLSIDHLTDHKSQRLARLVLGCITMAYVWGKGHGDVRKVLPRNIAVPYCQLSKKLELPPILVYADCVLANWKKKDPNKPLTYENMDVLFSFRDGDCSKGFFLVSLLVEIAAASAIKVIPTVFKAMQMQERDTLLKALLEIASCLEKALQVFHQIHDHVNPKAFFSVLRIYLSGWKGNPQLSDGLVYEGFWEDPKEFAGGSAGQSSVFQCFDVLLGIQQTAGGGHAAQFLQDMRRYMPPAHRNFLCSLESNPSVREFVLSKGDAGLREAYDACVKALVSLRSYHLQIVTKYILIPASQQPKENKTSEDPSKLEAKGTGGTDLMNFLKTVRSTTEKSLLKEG
row,Structure (SMILES),EC50
1,Cc1ncc(-c2ccnn3c(-c4cccc(F)c4F)cnc23)cc1C(=O)Nc1ccc(F)cc1 [Example 13],395 nM
2,"Cc1ccc(-c2cccn3c(-c4ccccc4)cnc23)cc1C(=O)Nc1ccc(F)cc1 [Example 17, N-(4-fluorophenyl)-2-methyl-5-(3-phenylimidazo[1,2-a]pyridin-8-yl)benzamide]",168 nM
3,"O=C(Nc1ccc(F)cc1)c1cc(-c2cccn3c(-c4cccc(F)c4F)c(CO)nc23)ccc1C(F)(F)F [Example 28, 5-(3-(2,3-difluorophenyl)-2-(hydroxymethyl)imidazo[1,2-a]pyridin-8-yl)-N-(4-fluorophenyl)-2-(trifluoromethyl)benzamide]",40 nM
4,"O=C(Nc1ccc(F)cc1)c1cc(-c2cccn3c(-c4cccnc4)c(CO)nc23)ccc1Cl [Example 15, 2-chloro-N-(4-fluorophenyl)-5-(2-(hydroxymethyl)-3-(pyridin-3-yl)imidazo[1,2-a]pyridin-8-yl)benzamide]",272 nM
5,"Cc1ccc(-c2cccn3c(-c4cccc(F)c4F)c(C)nc23)cc1C(=O)Nc1ccc(F)cc1 [Example 11, 5-(3-(2,3-difluorophenyl)-2-methylimidazo[1,2-a]pyridin-8-yl)-N-(4-fluorophenyl)-2-methylbenzamide]",436 nM
6,"Cc1ncc(-c2cccn3c(-c4cncc(F)c4)c(CO)nc23)cc1C(=O)Nc1ccc(F)cc1 [Example 2, N-(4-fluorophenyl)-5-(3-(5-fluoropyridin-3-yl)-2-(hydroxymethyl)imidazo[1,2-a]pyridin-8-yl)-2-methylnicotinamide]",3610 nM
7,"Cc1ccc(-c2cccn3c(-c4cccc(F)c4)cnc23)cc1C(=O)Nc1ccc(F)cc1 [Example 19, N-(4-fluorophenyl)-5-(3-(3-fluorophenyl)imidazo[1,2-a]pyridin-8-yl)-2-methylbenzamide]",146 nM
8,"Cc1ncc(-c2cccn3c(-c4cccc(F)c4F)cnc23)cc1C(=O)Nc1ccc(F)cc1 [Example 12, 5-(3-(2,3-difluorophenyl)imidazo[1,2-a]pyridin-8-yl)-N-(4-fluorophenyl)-2-methylnicotinamide]",403 nM
9,"Fc1ccc2[nH]c(-c3cc(-c4cccn5c(-c6cccc(F)c6F)cnc45)ccc3C(F)(F)F)nc2c1 [Example 36, 2-(5-(3-(2,3-difluorophenyl)imidazo[1,2-a]pyridin-8-yl)-2-(trifluoromethyl)phenyl)-5-fluoro-1H-benzo[d]imidazole]",713 nM
10,"Cc1cnc(-c2cccn3c(-c4cccc(F)c4F)cnc23)cc1C(=O)Nc1ccc(F)cc1 [Example 8, 2-(3-(2,3-difluorophenyl)imidazo[1,2-a]pyridin-8-yl)-N-(4-fluorophenyl)-5-methylisonicotinamide]",945 nM
11,"NCc1nc2c(-c3ccc(C(F)(F)F)c(C(=O)Nc4ccc(F)cc4)c3)cccn2c1-c1cccc(F)c1F [Example 7, 5-(2-(aminomethyl)-3-(2,3-difluorophenyl)imidazo[1,2-a]pyridin-8-yl)-N-(4-fluorophenyl)-2-(trifluoromethyl)benzamide]",1010 nM

# Further lines, results first:
row,EC50,Structure (SMILES)
1,2230 nM,"Cc1ccc(-c2cnc3c(-c4ccc(C(F)(F)F)c(C(=O)Nc5ccc(F)cc5)c4)cccn23)cn1 [Example 4, N-(4-fluorophenyl)-5-(3-(6-methylpyridin-3-yl)imidazo[1,2-a]pyridin-8-yl)-2-(trifluoromethyl)benzamide]"
2,73 nM,"Cc1ccc(-c2cccn3c(-c4ccccc4F)cnc23)cc1C(=O)Nc1ccc(F)cc1 [Example 23, N-(4-fluorophenyl)-5-(3-(2-fluorophenyl)imidazo[1,2-a]pyridin-8-yl)-2-methylbenzamide]"
3,1420 nM,"O=C(Nc1ccc(F)cc1)c1cc(-c2cccn3c(-c4ccncc4)cnc23)ccc1C(F)(F)F [Example 6, N-(4-fluorophenyl)-5-(3-(pyridin-4-yl)imidazo[1,2-a]pyridin-8-yl)-2-(trifluoromethyl)benzamide]"
4,89 nM,"O=C(Nc1ccc(F)cc1)c1cc(-c2cccn3c(-c4cccc(F)c4F)cnc23)cnc1C(F)(F)F [Example 20, 5-(3-(2,3-difluorophenyl)imidazo[1,2-a]pyridin-8-yl)-N-(4-fluorophenyl)-2-(trifluoromethyl)nicotinamide]"
5,372 nM,"Cc1ncc(-c2cccn3c(-c4cccc(F)c4F)c(CO)nc23)cc1C(=O)Nc1ccc(F)cc1 [Example 14, 5-(3-(2,3-difluorophenyl)-2-(hydroxymethyl)imidazo[1,2-a]pyridin-8-yl)-N-(4-fluorophenyl)-2-methylnicotinamide]"
6,535 nM,"Cc1ncccc1-c1cnc2c(-c3ccc(C(F)(F)F)c(C(=O)Nc4ccc(F)cc4)c3)cccn12 [Example 9, N-(4-fluorophenyl)-5-(3-(2-methylpyridin-3-yl)imidazo[1,2-a]pyridin-8-yl)-2-(trifluoromethyl)benzamide]"
7,1700 nM,Cc1cccc(-c2cnc3c(-c4ccc(C(F)(F)F)c(C(=O)Nc5ccc(F)cc5)c4)cccn23)n1 [Example 5]
8,165 nM,"Cc1nc2c(-c3ccc(C(F)(F)F)c(C(=O)Nc4ccc(F)cc4)c3)cccn2c1-c1cccnc1 [Example 18, N-(4-fluorophenyl)-5-(2-methyl-3-(pyridin-3-yl)imidazo[1,2-a]pyridin-8-yl)-2-(trifluoromethyl)benzamide]"
9,168 nM,"Cc1ccc(-c2cccn3c(-c4cccc(F)c4F)cnc23)nc1C(=O)Nc1ccc(F)cc1 [Example 16, 6-(3-(2,3-difluorophenyl)imidazo[1,2-a]pyridin-8-yl)-N-(4-fluorophenyl)-3-methylpicolinamide]"
10,74 nM,"O=C(Nc1ccc(F)cc1)c1cc(-c2cccn3c(-c4cccnc4F)cnc23)ccc1C(F)(F)F [Example 22, N-(4-fluorophenyl)-5-(3-(2-fluoropyridin-3-yl)imidazo[1,2-a]pyridin-8-yl)-2-(trifluoromethyl)benzamide]"
11,8680 nM,"COCCOCc1nc2c(-c3ccc(C(F)(F)F)c(C(=O)Nc4ccc(F)cc4)c3)cccn2c1-c1cccc(F)c1F [Example 1, 5-(3-(2,3-difluorophenyl)-2-((2-methoxyethoxy)methyl)imidazo[1,2-a]pyridin-8-yl)-N-(4-fluorophenyl)-2-(trifluoromethyl)benz amide]"
12,2390 nM,"O=C(Nc1ccc(F)cc1)c1cc(-c2cccn3c(-c4cccc(F)c4F)cnc23)ncc1C(F)(F)F [Example 3, 2-(3-(2,3-difluorophenyl)imidazo[1,2-a]pyridin-8-yl)-N-(4-fluorophenyl)-5-(trifluoromethyl)isonicotinamide]"
13,89 nM,"O=C(Nc1ccc(F)cc1)c1cc(-c2cccn3c(-c4cccnc4)c(CO)nc23)ccc1C(F)(F)F [Example 21, N-(4-fluorophenyl)-5-(2-(hydroxymethyl)-3-(pyridin-3-yl)imidazo[1,2-a]pyridin-8-yl)-2-(trifluoromethyl)benzamide]"
14,64 nM,"O=C(Nc1ccc(F)cc1)c1nc(-c2cccn3c(-c4cccc(F)c4F)cnc23)ccc1C(F)(F)F [Example 24, 6-(3-(2,3-difluorophenyl)imidazo[1,2-a]pyridin-8-yl)-N-(4-fluorophenyl)-3-(trifluoromethyl)picolinamide]"
